Assays:
TRα = molecular target: T1, TRα (Homo sapiens, UniProt P10827); assay: Thyroid-hormone reporter-gene assay (TRα-Gal4 hybrid, luciferase, HEK293); type: cell-based; conditions: reporter cells, 24 hr incubation; Table 2; read-out: TRα (EC50)
T1 construct: expressed in transfected cells; host or cells: HEK293
T1 sequence (P10827 163-410 isoform P10827-2 limits assumed): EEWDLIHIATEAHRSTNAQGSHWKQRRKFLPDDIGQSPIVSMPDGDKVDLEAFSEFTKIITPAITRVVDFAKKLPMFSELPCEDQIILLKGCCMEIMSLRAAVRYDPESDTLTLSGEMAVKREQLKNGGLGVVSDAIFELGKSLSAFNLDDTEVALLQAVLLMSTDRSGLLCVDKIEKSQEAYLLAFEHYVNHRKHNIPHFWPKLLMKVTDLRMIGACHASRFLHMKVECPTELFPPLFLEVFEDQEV
Method: (§1) Compounds were tested for thyroid-hormone receptor activity using TR reporter-gene assays. Reporter cells used in the assays express a TR-receptor hybrid (either TRα or TRβ) in which the native N-terminal DNA binding domain (DBD) has been replaced with that of the yeast Gal4 DBD. The reporter gene, firefly luciferase, is functionally linked to the Gal4 upstream activation sequence (UAS). Both cell lines were derived from human embryonic kidney (HEK293).
(§2) Step 1: A suspension of reporter cells was prepared in cell recovery medium containing 10% charcoal-stripped FBS, and dispensed into assay plates. The plates were pre-incubated for 6 hours in a cell culture incubator (37° C./5% CO2/85% humidity).
(§3) These intermediate stocks were subsequently diluted directly into compound screening medium containing 10% charcoal-stripped FBS to generate “2×-concentration” treatment media (containing 0.2, 0.4 or 0.8% DMSO).
(§4) Step 3: At the end of the pre-incubation period, culture media were discarded from the assay plates, and all wells received 100 μl of compound screening medium. 100 μl of each of the previously prepared “2×-concentration” treatment media were dispensed into duplicate assay wells, thereby achieving the desired final treatment concentrations. The final concentration of DMSO in all assay wells was 0.1, 0.2 or 0.4%. Assay plates were incubated for 24 hr in a cell culture incubator (37° C./5% CO2/85% humidity).
(§5) Step 4: At the 24 h assay endpoint, treatment media were discarded and 100 μl/well of luciferase detection reagent was added. Relative luminometer units (RLUs) were quantified from each assay well.

TRβ = molecular target: T2, TRβ (Homo sapiens, UniProt P10828); assay: Thyroid-hormone reporter-gene assay (TRβ-Gal4 hybrid, luciferase, HEK293); type: cell-based; conditions: Table 2; for T3-SI (selectivity index): calculated as EC50 (TRα)/EC50 (TRβ); for EC50: reporter cells, 24 hr incubation, read-out: TRβ (EC50)
T2 construct: expressed in transfected cells; host or cells: HEK293
T2 sequence (P10828 217-461 limits assumed): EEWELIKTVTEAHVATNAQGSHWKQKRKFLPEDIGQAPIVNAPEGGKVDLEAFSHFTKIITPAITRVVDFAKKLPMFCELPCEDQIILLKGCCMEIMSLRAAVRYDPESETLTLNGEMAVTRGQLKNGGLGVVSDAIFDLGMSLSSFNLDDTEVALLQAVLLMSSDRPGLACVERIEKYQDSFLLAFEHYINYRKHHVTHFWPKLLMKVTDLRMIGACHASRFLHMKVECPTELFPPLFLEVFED
Method: as §1, §2, §3, §4, §5

| Compound | EC50 (TRα) | T3-SI (selectivity index) (TRβ) | EC50 (TRβ) |
| --- | --- | --- | --- |
| C=Cc1cc(OCC(=O)O)c(F)c(Cl)c1Cc1ccc(O)c(C(C)C)c1 [Compound 75, 2-(3-chloro-2-fluoro-4-(4-hydroxy-3-isopropylbenzyl)-5-vinylphenoxy)acetic acid] | 100 to 1000 nM | +++ (T3-SI>30×) | 10 to 100 nM |
| CCc1cc(OCC(=O)O)c(F)c(Cl)c1Cc1ccc(O)c(C(C)C)c1 [Compound 77, 2-(3-chloro-5-ethyl-2-fluoro-4-(4-hydroxy-3-isopropylbenzyl)phenoxy)acetic acid] | 10 to 100 nM | ++ (3×<T3-SI≤30×) | 10 to 100 nM |
| C=C(C)c1cc(OCC(=O)O)c(F)c(Cl)c1Cc1ccc(O)c(C(C)C)c1 [Compound 79, 2-(3-chloro-2-fluoro-4-(4-hydroxy-3-isopropylbenzyl)-5-(prop-1-en-2-yl)phenoxy)acetic acid] | 100 to 1000 nM | +++ (T3-SI>30×) | 10 to 100 nM |
| CC(C)c1cc(Cc2c(C(C)C)cc(OCC(=O)O)c(F)c2Cl)ccc1O [Compound 81, 2-(3-chloro-2-fluoro-4-(4-hydroxy-3-isopropylbenzyl)-5-isopropylphenoxy)acetic acid] | 10 to 100 nM | ++ (3×<T3-SI≤30×) | 10 to 100 nM |
| O=C(O)COc1cc(Cl)c(Cc2ccc(O)c(Cc3ccc(F)cc3)c2)c(Cl)c1F [Compound 83, 2-(3,5-dichloro-2-fluoro-4-(3-(4-fluorobenzyl)-4-hydroxybenzyl)phenoxy)acetic acid] | 100 to 1000 nM | +++ (T3-SI>30×) | 10 to 100 nM |
| CCCC(c1ccc(F)cc1)c1cc(Cc2c(Cl)cc(OCC(=O)O)c(F)c2Cl)ccc1O (stereo not drawn) [Compound 85, 2-(3,5-dichloro-2-fluoro-4-(3-(1-(4-fluorophenyl)butyl)-4-hydroxybenzyl)phenoxy)acetic acid] | > 1000 nM | +++ (T3-SI>30×) | 100 to 1000 nM |
| CC(C)c1cc(Cc2c(Cl)cc(OCC(=O)O)c(Cl)c2Cl)ccc1O [Compound 89, 2-(2,3,5-trichloro-4-(4-hydroxy-3-isopropylbenzyl)phenoxy)acetic acid] | 10 to 100 nM | ++ (3×<T3-SI≤30×) | 10 to 100 nM |
| Cc1c(OCC(=O)O)cc(Cl)c(Cc2ccc(O)c(C(C)C)c2)c1Cl [Compound 91, 2-(3,5-dichloro-4-(4-hydroxy-3-isopropylbenzyl)-2-methylphenoxy)acetic acid] | 100 to 1000 nM | +++ (T3-SI>30×) | 10 to 100 nM |
| Cc1cc(OCC(=O)O)c(F)c(C)c1Cc1ccc(O)c(C(C)C)c1F [Compound 93, 2-(2-fluoro-4-(2-fluoro-4-hydroxy-3-isopropylbenzyl)-3,5-dimethylphenoxy)acetic acid] | 100 to 1000 nM | +++ (T3-SI>30×) | 10 to 100 nM |
| CC(C)c1c(O)ccc(Cc2c(Cl)cc(OCC(=O)O)c(F)c2Cl)c1F [Compound 97, 2-(3,5-dichloro-2-fluoro-4-(2-fluoro-4-hydroxy-3-isopropylbenzyl)phenoxy)acetic acid] | 10 to 100 nM | ++ (3×<T3-SI≤30×) | < 10 nM |
| O=C(O)COc1cc(Cl)c(Cc2ccc(O)c(-c3cc(OC(F)F)ccc3F)c2F)c(Cl)c1F [Compound 101, 2-(3,5-dichloro-4-((5′-(difluoromethoxy)-2,2′-difluoro-6-hydroxy-[1,1′-biphenyl]-3-yl)methyl)-2-fluorophenoxy)acetic acid] | > 1000 nM | ++ (3×<T3-SI≤30×) | 100 to 1000 nM |
| O=C(O)COc1cc(Cl)c(Cc2ccc(O)c(Cc3ccc(F)cc3)c2F)c(Cl)c1F [Compound 103, 2-(3,5-dichloro-2-fluoro-4-(2-fluoro-3-(4-fluorobenzyl)-4-hydroxybenzyl)phenoxy)acetic acid] | 10 to 100 nM | +++ (T3-SI>30×) | 10 to 100 nM |
| CC(c1ccc(F)cc1)c1c(O)ccc(Cc2c(Cl)cc(OCC(=O)O)c(F)c2Cl)c1F (stereo not drawn) [Compound 107, 2-(3,5-dichloro-2-fluoro-4-(2-fluoro-3-(1-(4-fluorophenyl)ethyl)-4-hydroxybenzyl)phenoxy)acetic acid] | 10 to 100 nM | ++ (3×<T3-SI≤30×) | 10 to 100 nM |
| Cc1cc(OCC(=O)O)c(F)c(Cl)c1Cc1ccc(O)c(C(C)C)c1F [Compound 109, 2-(3-chloro-2-fluoro-4-(2-fluoro-4-hydroxy-3-isopropylbenzyl)-5-methylphenoxy)acetic acid] | 10 to 100 nM | +++ (T3-SI>30×) | < 10 nM |
| Cc1c(F)c(OCC(=O)O)cc(Cl)c1Cc1ccc(O)c(C(C)C)c1F [Compound 112, 2-(5-chloro-2-fluoro-4-(2-fluoro-4-hydroxy-3-isopropylbenzyl)-3-methylphenoxy)acetic acid] | 10 to 100 nM | ++ (3×<T3-SI≤30×) | < 10 nM |
| Cc1cc(OCC(=O)O)c(F)c(Cl)c1Cc1ccc(O)c(C(C)C)c1 [Compound 115, 2-(3-chloro-2-fluoro-4-(4-hydroxy-3-isopropylbenzyl)-5-methylphenoxy)acetic acid] | 100 to 1000 nM | ++ (3×<T3-SI≤30×) | 10 to 100 nM |
| Cc1c(F)c(OCC(=O)O)cc(Cl)c1Cc1ccc(O)c(C(C)C)c1 [Compound 118, 2-(5-chloro-2-fluoro-4-(4-hydroxy-3-isopropylbenzyl)-3-methylphenoxy)acetic acid] | 100 to 1000 nM | +++ (T3-SI>30×) | 10 to 100 nM |
| C=C(C)c1c(F)c(OCC(=O)O)cc(Cl)c1Cc1ccc(O)c(C(C)C)c1F [Compound 121, 2-(5-chloro-2-fluoro-4-(2-fluoro-4-hydroxy-3-isopropylbenzyl)-3-(prop-1-en-2-yl)phenoxy)acetic acid] | > 1000 nM | ++ (3×<T3-SI≤30×) | 100 to 1000 nM |
| CC(C)c1c(O)ccc(Cc2c(Cl)cc(OCC(=O)O)c(F)c2C(C)C)c1F [Compound 123, 2-(5-chloro-2-fluoro-4-(2-fluoro-4-hydroxy-3-isopropylbenzyl)-3-isopropylphenoxy)acetic acid] | 100 to 1000 nM | ++ (3×<T3-SI≤30×) | 10 to 100 nM |
| CNC(=O)COc1cc(C)c(Cc2ccc(O)c(C(C)C)c2)c(F)c1F [Compound 133, 2-(2,3-difluoro-4-(4-hydroxy-3-isopropylbenzyl)-5-methylphenoxy)-N-methylacetamide] | 10 to 100 nM | ++ (3×<T3-SI≤30×) | 10 to 100 nM |
| CCc1cc(OCC(=O)Nc2onc(C)c2C)cc(Cl)c1Cc1ccc(O)c(C(C)C)c1F [Compound 142, 2-(3-chloro-5-ethyl-4-(2-fluoro-4-hydroxy-3-isopropylbenzyl)phenoxy)-N-(3,4-dimethylisoxazol-5-yl)acetamide] | 100 to 1000 nM | ++ (3×<T3-SI≤30×) | 10 to 100 nM |
| CNC(=O)COc1cc(C)c(Cc2ccc(O)c(C(C)C)c2)c(Cl)c1F [Compound 143, 2-(3-chloro-2-fluoro-4-(4-hydroxy-3-isopropylbenzyl)-5-methylphenoxy)-N-methylacetamide] | 100 to 1000 nM | +++ (T3-SI>30×) | 10 to 100 nM |
| CCOC(=O)COc1cc(F)c(Cc2ccc(O)c(C(C)C)c2)c(Cl)c1F [Compound 147, ethyl 2-(3-chloro-2,5-difluoro-4-(4-hydroxy-3-isopropylbenzyl)phenoxy)acetate] | > 1000 nM | +++ (T3-SI>30×) | 100 to 1000 nM |
| CCOC(=O)COc1cc(Cl)c(Cc2ccc(O)c(C(C)C)c2)c(Cl)c1OC [Compound 165, ethyl 2-(3,5-dichloro-4-(4-hydroxy-3-isopropylbenzyl)-2-methoxyphenoxy)acetate] | 100 to 1000 nM | ++ (3×<T3-SI≤30×) | 100 to 1000 nM |
| CNC(=O)COc1cc(Cl)c(Cc2ccc(O)c(C(C)C)c2)c(Cl)c1OC [Compound 167, 2-(3,5-dichloro-4-(4-hydroxy-3-isopropylbenzyl)-2-methoxyphenoxy)-N-methylacetamide] | 10 to 100 nM | ++ (3×<T3-SI≤30×) | 10 to 100 nM |
